Test results: US8741965B2, “Method of administering a pheromone composition to an animal to modify the animals behavior over an extended period of time” (Sergeant's Pet Care Products, Inc., priority 2011, dated 2014)

Legend:
nervous dogs = assay: Example 11 Study 3: DAP spray versus RP spray with startle; type: in vivo, dog
Description: Eight dogs were obtained from a local contract research facility and assessment was made as to general dog health, behavior and heart rate. The dogs were estimated to be 2 to 7 years of age, mixed breed, and weighed averagely 8.1±0.18 kg at the start of the studies. […] Upon arrival each dog was bathed using shampoo containing flea and tick medicine (Hartz Mountain Corp. Secaucus, N.J. USA), and their body hair was shaved. Each dog was kept in a single room, which had 100% fresh air intake and exhaust. The dogs were fed twice (am and pm) per day ad libitum. At that time, the room was cleaned and the dogs obtained extra exercise. Water was available ad libitum.
Dog behavior was captured on video media at a sampling rate of 30 frames per second. Video records were reviewed in real time (with tape playing 30 frames per second). A scan sampling method was used to record dog behaviors each minute or each 5 minutes depending on the particular study. If the sample period was 120 minutes with four periods (0-30=0, 30-60=30, 60-90=60, and 90-120-90 min), then a scan sample was recorded each 1 minute. If the sample period was 24 hours, then the scan sample was collected each 5 minutes and summarized each hour. For example, pacing is when a dog walks in a stereotyped manner for minutes to hours. Because it was not easy to distinguish walking from pacing, the behaviors were merged. In addition, the video records could not clearly distinguish lying down and awake versus lying down and sleeping, therefore there was no separate description for these two behaviors.
Heart rate during the studies was measured by the use of a non-invasive telemetry system (Data Science International, St. Paul, Minn., USA). Leads were placed in contact with the dogs' shaved skin. Sensors measured heart rate, surface temperature and general activity. Data were transmitted to a receiving computer in another room. The sampling rate varied with the study, but was 5 seconds for the first two hours after treatments and then each 1 minute for 24 hours (depending on the particular study). For surface temperature measurements of the dog subjects, a thermistor was located against the skin of each dog. It recorded the surface temperature to the neared 0.1° C. on the same interval as the heart rate data.
Behavior and physiological data (heart rate and surface temperature) were analyzed by least squares analysis of variance using SAS (2011) software and the general linear models procedures. The experimental design of each study was a specialized randomized complete block in a Latin square design with data collected as a split plot over time. Dogs represented the blocks. Each dog received each treatment randomly in successive days or weeks. The statistical model included effects of treatment (TRT), dog, dog by treatment (TRT*DOG; error term used to assess treatment and dog effects), time (HR), treatment by time (TRT*HR), and residual error (SE; used to test remaining effects). Behavior data were collected and analyzed as counts per time period, but for clarity of presentation, the data are reported as percentage of time dogs engaged in each behavior.
In Study 1 and 2, the DAP was applied as a collar and the rabbit pheromone as a spray. To test if the physical form of the pheromone/INTEROMONE® impacted its efficacy, Study 3 examined the behavior and heart rate effects of Dog Appeasing Pheromone (DAP) and rabbit pheromone (RP) both applied as a spray after startle in order to obtain a direct comparison between sprays. Accordingly, Study 3 examined the relative effect of DAP spray (DAPS) and RP spray on the behavior and heart rate of the dog subjects. Both treatments were given to each dog in a random order. In this study, the Behavior data were collected from dogs 1-8 while heart rate data were collected from dogs 1-4.

rabbit pups = settings: presented on its own to rabbit pups; Schaal et al. 2003; cited from earlier work
dog = assay: Room diffuser containing rabbit pheromone, use on dogs (Example 8); type: in vivo; settings: 0.02% 2-methylbut-2-enal
Description: A room diffuser formulation containing rabbit pheromone can be prepared according to typical industry techniques described above. Table 4 is the list of ingredients that can be used to prepare a diffuser formulation comprising a rabbit pheromone.

## C/C=C(\C)C=O [RP, 2-methylbut-2-enal]
Nervous dogs; DAPS or RP spray with startle
  Defecate: 0.93 % of time
  Drink: 0 % of time
  Eat: 0 % of time
  Lick self: 0 % of time
  Lying down: 43.8 % of time
  Pace-walk: 9.8 % of time
  Sitting: 35.4 % of time
  Standing: 3.7 % of time
  Urinate: 0 % of time
Nervous dogs; RP spray versus DAP spray, startle
  sitting, main effect of treatment: tended to sit more (P=0.068) than DAP sprayed dogs
Nervous dogs; spray and startle, dogs 1-4, FIG. 14B
  heart rate change relative to time zero: generally unchanged over time, although were lower than baseline rate
Nervous dogs; sprays, during startle, FIG. 13
  lying down of individual dogs: Dog 3 showed increased lying down
Nervous dogs; sprays, startle, FIGS. 11 and 12
  pacing-walking and standing of individual dogs: dogs 1 and 4 had increased pacing-walking
Rabbit pups
  concentration sufficient to elicit full nipple search and grasping behavior (as low as): 10 ng/mL
dog
  change in dog behavior: significant change in behavior towards a calmer demeanor
